Reference: ChEMBL document CHEMBL5543165, “Recent Progress in DNA Damage Response-Targeting PROTAC Degraders” (J Med Chem, 2024)
pIC50: −log10 of the molar value. Each block holds one compound with its values, some of them ahead of it.

Assays:
LoVo [1] = experiment: Antitumor activity against human LoVo cells xenografted in BALB/c mouse assessed as tumor growth inhibition at 25 mg/kg, ip administered once daily for 14 days relative to control; format: functional; conditions: 336 h, time 14 day, read-out: TGI
[2] = biological target: T1, von Hippel-Lindau disease tumor suppressor/Serine/threonine-protein kinase ATR (Homo sapiens) (UniProt Q13535+P40337); experiment: PROTAC activity at […]/VHL in […] human HCT-116 cells assessed as maximum protein degradation at 5 uM measured after 24 hrs by immunoblot analysis relative to control; format: cell-based
LoVo [3] = experiment: Antitumor activity against human LoVo cells xenografted in BALB/c mouse assessed as tumor growth inhibition at 50 mg/kg, ip administered once daily for 14 days relative to control; format: functional; conditions: 336 h, time 14 day, read-out: TGI
[4] = biological target: T1, von Hippel-Lindau disease tumor suppressor/Serine/threonine-protein kinase ATR (Homo sapiens); experiment: PROTAC activity at […]/VHL in human LoVo cells assessed as maximum protein degradation at 5 uM measured after 24 hrs by immunoblot analysis relative to control; format: cell-based
[5] = biological target: Protein cereblon/Cyclin-dependent kinase 12 (Homo sapiens) (UniProt Q9NYV4+Q96SW2); experiment: PROTAC activity at CRBN/CDK12 in human HeLa cells assessed as maximal degradation of CDK12 at 1 uM measured after 24 hrs by Western blot analysis relative to control; format: cell-based
[6] = biological target: T2, von Hippel-Lindau disease tumor suppressor/SWI/SNF-related matrix-associated actin-dependent regulator of chromatin subfamily A member 4 (Homo sapiens, UniProt P51532+P40337); experiment: PROTAC activity at VHL/SMARCA4 in human RKO cells assessed as maximal degradation of SMARCA4 at 10 nM relative to control; format: cell-based
Target sequence in this assay (P40337 whole entry, looked up): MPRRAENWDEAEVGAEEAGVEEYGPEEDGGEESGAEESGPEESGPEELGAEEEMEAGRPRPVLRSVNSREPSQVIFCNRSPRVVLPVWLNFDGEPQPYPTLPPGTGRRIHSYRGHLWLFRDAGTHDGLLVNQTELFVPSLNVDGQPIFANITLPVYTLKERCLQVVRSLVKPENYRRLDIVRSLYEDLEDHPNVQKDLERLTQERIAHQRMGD
Target sequence in this assay (P51532 whole entry, looked up): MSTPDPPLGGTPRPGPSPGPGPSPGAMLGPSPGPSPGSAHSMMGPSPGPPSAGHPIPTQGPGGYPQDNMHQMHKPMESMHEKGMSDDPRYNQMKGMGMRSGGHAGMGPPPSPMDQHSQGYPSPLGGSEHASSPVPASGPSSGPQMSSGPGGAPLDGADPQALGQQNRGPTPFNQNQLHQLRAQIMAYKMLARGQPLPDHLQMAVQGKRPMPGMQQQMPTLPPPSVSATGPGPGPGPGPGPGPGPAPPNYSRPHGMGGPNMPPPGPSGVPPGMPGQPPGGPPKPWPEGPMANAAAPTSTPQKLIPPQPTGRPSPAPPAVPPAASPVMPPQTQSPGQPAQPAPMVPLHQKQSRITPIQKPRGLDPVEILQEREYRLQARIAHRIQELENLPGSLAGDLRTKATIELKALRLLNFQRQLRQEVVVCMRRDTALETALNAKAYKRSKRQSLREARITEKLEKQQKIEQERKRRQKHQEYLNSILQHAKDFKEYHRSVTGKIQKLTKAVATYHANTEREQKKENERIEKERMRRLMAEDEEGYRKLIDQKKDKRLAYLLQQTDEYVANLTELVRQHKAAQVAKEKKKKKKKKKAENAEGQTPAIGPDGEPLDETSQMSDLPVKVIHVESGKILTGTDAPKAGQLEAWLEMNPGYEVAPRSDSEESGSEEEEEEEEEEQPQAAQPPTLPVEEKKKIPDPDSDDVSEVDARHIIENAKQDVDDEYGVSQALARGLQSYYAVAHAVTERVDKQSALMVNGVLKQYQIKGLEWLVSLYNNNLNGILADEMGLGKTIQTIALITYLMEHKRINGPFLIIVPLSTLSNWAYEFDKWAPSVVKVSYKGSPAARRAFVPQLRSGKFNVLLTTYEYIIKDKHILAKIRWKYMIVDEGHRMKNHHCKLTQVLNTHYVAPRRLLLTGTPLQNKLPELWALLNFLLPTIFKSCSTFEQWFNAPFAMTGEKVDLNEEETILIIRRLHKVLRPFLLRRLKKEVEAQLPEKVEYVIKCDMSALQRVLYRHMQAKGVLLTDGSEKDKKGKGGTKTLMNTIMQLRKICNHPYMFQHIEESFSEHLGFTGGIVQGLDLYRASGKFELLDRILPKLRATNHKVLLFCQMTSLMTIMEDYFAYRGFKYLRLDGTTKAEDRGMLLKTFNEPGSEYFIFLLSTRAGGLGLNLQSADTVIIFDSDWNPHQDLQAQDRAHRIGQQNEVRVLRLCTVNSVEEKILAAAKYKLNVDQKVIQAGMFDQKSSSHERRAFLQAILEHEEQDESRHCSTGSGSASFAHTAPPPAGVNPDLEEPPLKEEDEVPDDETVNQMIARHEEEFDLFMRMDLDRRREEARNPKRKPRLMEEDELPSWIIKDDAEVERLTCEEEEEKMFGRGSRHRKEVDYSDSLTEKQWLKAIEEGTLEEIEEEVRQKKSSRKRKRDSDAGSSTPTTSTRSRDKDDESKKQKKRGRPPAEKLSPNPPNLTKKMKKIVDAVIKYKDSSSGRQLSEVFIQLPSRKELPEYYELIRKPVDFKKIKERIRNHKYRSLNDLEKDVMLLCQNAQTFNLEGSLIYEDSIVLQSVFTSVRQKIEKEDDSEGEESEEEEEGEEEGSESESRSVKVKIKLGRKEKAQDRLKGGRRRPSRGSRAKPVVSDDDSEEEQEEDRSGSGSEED

[7] = biological target: T2, von Hippel-Lindau disease tumor suppressor/SWI/SNF-related matrix-associated actin-dependent regulator of chromatin subfamily A member 4; experiment: PROTAC activity at VHL/SMARCA4 in human RKO cells assessed as degradation of SMARCA4; format: cell-based
Target sequence in this assay (P51532 whole entry): as the sequence (P51532 whole entry, looked up) above
Target sequence in this assay (P40337 whole entry): as the sequence (P40337 whole entry, looked up) above

MOLT-4 = experiment: Antiproliferative activity against human MOLT-4 cells assessed as reduction in cell viability incubated for 72 hrs by CellTiter-Glo Luminescent assay; format: functional, cell-based; conditions: MOLT-4, 72 h
[8] = biological target: Protein cereblon/Bromodomain-containing protein 2 (Homo sapiens) (UniProt P25440+Q96SW2); experiment: PROTAC activity at CRBN/BRD2 in human MV4-11 cells assessed as maximal degradation of BRD2 protein level at 0.5 uM incubated for 4 hrs by Western blotting assay relative to control; format: cell-based
MV4-11 = experiment: Antitumor activity against human MV4-11 cells xenografted in BALB/c nude mouse assessed as tumor growth inhibition at 25 mg/kg, po administered once daily for 17 days relative to control; format: functional; conditions: MV4-11, 408 h, time 17 day, read-out: TGI
[9] = biological target: T3, Protein cereblon/Wee1-like protein kinase (Homo sapiens) (UniProt P30291+Q96SW2); experiment: PROTAC activity at CRBN/Wee1 in human MV4-11 cells assessed as maximal degradation of Wee1 at 100 nM measured after 2 hrs by Western blot analysis relative to control; format: cell-based
[10] = biological target: T4, von Hippel-Lindau disease tumor suppressor/SWI/SNF-related matrix-associated actin-dependent regulator of chromatin subfamily A member 2 (Homo sapiens, UniProt P51531+P40337); experiment: PROTAC activity at VHL/SMARCA2 in human RKO cells assessed as degradation of SMARCA2 incubated for 18 hrs by Western blot analysis; format: cell-based
[11] = biological target: T3, Protein cereblon/Wee1-like protein kinase (Homo sapiens); experiment: PROTAC activity at CRBN/Wee1 in human MV4-11 cells assessed as maximal degradation of Wee1 at 1 uM measured after 2 hrs by Western blot analysis relative to control; format: cell-based
[12] = biological target: Protein cereblon/Poly [ADP-ribose] polymerase 1 (Homo sapiens, UniProt P09874+Q96SW2); experiment: PROTAC activity at CRBN/PARP1 in human SW620 cells assessed as degradation of PARP1 measured after 24 hrs by Western blot analysis; format: cell-based
[13] = biological target: T4, von Hippel-Lindau disease tumor suppressor/SWI/SNF-related matrix-associated actin-dependent regulator of chromatin subfamily A member 2; experiment: PROTAC activity at VHL/SMARCA2 in human MV4-11 cells assessed as induction of SMARCA2 degradation at 10 uM by measuring maximal efficacy incubated for 20 hrs by Western blotting analysis relative to control; format: cell-based

T1 sequence (P40337 whole entry, looked up): as above
T1 sequence (Q13535 whole entry, looked up): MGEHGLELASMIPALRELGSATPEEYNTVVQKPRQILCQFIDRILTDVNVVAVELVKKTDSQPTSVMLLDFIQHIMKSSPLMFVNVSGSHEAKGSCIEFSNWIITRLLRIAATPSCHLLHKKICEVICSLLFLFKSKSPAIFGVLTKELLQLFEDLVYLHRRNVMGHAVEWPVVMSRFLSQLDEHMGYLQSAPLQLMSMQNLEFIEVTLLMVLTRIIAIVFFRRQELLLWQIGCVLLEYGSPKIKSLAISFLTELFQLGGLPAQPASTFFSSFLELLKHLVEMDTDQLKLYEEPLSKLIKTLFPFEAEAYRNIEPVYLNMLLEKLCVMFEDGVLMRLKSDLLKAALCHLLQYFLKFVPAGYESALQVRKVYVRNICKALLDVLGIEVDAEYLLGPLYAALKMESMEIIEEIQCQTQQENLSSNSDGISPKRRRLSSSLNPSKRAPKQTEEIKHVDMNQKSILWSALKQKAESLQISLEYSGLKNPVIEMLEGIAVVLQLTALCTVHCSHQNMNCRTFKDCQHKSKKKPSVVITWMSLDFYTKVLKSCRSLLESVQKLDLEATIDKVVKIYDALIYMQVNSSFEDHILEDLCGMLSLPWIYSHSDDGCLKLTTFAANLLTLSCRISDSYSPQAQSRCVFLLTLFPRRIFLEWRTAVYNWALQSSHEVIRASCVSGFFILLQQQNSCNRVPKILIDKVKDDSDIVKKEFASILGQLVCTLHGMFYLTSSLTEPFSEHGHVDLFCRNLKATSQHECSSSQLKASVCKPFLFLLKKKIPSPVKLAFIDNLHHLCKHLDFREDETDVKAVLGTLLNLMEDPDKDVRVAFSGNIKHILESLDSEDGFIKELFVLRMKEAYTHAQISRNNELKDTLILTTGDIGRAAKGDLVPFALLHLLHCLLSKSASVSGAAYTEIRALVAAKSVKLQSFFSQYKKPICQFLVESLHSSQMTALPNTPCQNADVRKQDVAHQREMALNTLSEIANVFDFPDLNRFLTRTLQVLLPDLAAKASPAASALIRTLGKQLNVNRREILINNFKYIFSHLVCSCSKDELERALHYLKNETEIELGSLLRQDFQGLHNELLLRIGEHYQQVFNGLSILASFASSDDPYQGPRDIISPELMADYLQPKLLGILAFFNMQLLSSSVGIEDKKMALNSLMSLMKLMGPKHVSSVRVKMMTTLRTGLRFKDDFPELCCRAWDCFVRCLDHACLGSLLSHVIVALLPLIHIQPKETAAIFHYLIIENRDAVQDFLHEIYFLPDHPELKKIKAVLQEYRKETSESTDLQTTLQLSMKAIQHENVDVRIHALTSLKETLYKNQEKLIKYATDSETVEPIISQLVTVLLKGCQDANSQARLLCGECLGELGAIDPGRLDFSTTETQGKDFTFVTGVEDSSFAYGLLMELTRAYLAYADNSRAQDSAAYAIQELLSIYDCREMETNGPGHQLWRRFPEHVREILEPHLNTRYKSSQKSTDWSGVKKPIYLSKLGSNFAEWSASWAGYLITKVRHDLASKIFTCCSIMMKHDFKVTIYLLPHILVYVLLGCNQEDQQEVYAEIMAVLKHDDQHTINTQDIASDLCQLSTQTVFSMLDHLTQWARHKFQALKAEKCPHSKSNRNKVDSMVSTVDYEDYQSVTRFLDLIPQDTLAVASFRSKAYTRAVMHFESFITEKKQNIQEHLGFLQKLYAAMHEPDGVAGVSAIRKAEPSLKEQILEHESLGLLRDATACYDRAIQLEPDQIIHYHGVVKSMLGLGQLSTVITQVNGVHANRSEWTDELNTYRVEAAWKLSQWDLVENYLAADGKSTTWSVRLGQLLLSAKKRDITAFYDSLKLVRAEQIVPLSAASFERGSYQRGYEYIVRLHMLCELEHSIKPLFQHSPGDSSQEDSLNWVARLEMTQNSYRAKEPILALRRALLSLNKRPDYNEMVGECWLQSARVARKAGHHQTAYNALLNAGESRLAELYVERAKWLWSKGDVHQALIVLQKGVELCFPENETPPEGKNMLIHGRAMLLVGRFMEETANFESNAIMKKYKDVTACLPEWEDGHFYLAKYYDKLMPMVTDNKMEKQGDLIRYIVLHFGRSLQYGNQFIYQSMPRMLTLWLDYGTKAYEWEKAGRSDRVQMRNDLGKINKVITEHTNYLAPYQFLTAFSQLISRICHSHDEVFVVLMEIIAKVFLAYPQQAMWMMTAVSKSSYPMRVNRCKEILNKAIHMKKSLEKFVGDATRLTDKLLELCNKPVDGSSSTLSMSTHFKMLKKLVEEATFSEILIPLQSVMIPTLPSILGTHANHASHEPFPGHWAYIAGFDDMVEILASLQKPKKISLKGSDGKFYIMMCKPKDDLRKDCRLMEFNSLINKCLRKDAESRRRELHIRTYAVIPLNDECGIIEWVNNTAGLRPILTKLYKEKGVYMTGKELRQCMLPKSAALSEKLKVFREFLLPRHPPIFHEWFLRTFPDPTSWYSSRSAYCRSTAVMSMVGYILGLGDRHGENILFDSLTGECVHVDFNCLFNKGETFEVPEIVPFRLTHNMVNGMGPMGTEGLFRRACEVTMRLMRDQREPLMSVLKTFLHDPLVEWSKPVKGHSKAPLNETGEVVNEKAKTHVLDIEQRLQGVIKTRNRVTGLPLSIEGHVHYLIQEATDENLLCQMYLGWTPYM

- Emax [6]: 46%
- DC50 [7]: 78 nM
SMILES: Cc1ncsc1-c1ccc(CNC(=O)[C@@H]2C[C@@H](O)CN2C(=O)[C@@H](NC(=O)C2(F)CC2)C(C)(C)C)c(OCCCN2CCC(c3ccc4c(c3)n(C3CCCC3)c3nc(=O)c5c(Br)cccc5n43)CC2)c1

- Emax [11]: > 70%
SMILES: C=CCn1c(=O)c2cnc(Nc3ccc(N4CCN(CCCC(=O)N[C@H](C(=O)N5C[C@H](O)C[C@H]5C(=O)NCc5ccc(-c6scnc6C)cc5)C(C)(C)C)CC4)cc3)nc2n1-c1cccc(C(C)(C)O)n1

- DC50 [12]: 5400 nM
SMILES: O=C(CCCCCCCCCCC(=O)c1cc(Cc2n[nH]c(=O)c3ccccc23)ccc1F)Cc1cccc2c1CN(C1CCC(=O)NC1=O)C2=O (configuration not stated)

- Emax [13]: > 95%
SMILES: COc1ccc(C(=O)/C=C/C(=O)N2CCN(c3cc(-c4ccccc4O)nnc3N)CC2)cc1

Further lines, the compound ahead of its results:

SMILES: C[C@H]1COCCN1c1cc(C2([S@](C)(=O)=NC(=O)CCc3cn(CCCCCCCC(=O)Nc4cccc5c4C(=O)N(C4CCC(=O)NC4=O)C5=O)nn3)CC2)nc(-c2ccnc3[nH]ccc23)n1 (some centres not stated)
- inhibition in vivo at 25 mg/kg (LoVo [1]): 35.9%
- Emax [2]: > 80%
- inhibition in vivo at 50 mg/kg (LoVo [3]): 51.8%
- Emax [4]: > 80%

SMILES: C=CCn1c(=O)c2cnc(Nc3ccc(N4CCN(CCCC(=O)NCCOCCOCCNc5cccc6c5C(=O)N(C5CCC(=O)NC5=O)C6=O)CC4)cc3)nc2n1-c1cccc(C(C)(C)O)n1 (configuration not stated)
- Emax [5]: > 80%

SMILES: C=CCn1c(=O)c2cnc(Nc3ccc(N4CCN(C)CC4)cc3)nc2n1-c1cccc(C(C)(C)O)n1 [ADAVOSERTIB]
- pIC50 (MOLT-4): 6.10

SMILES: Nc1ncc(-c2ccc(C(=O)N3CCN(CCCCC(=O)Nc4cccc5c4C(=O)N(C4CCC(=O)NC4=O)C5=O)CC3)cc2)nc1C(=O)Nc1ccccc1 (configuration not stated)
- Emax [8]: > 50%
- inhibition in vivo at 25 mg/kg (MV4-11): 57%

SMILES: C=CCn1c(=O)c2cnc(Nc3ccc(N4CCN(CCCNc5cccc6c5C(=O)N(C5CCC(=O)NC5=O)C6=O)CC4)cc3)nc2n1-c1cccc(C(C)(C)O)n1 (configuration not stated)
- pIC50 (MOLT-4): 6.41
- Emax [9]: 50%

SMILES: Cc1ncsc1-c1ccc([C@@H](CCCN2CCC(c3ccc4c(c3)n(C3CCCC3)c3nc(=O)c5c(Br)cccc5n43)CC2)NC(=O)[C@@H]2C[C@@H](O)CN2C(=O)[C@@H](NC(=O)C2(F)CC2)C(C)(C)C)cc1
- DC50 [10]: 2 nM
- Emax [6]: 77%
